Patent US20250019382A1, “NOVEL INHIBITORS OF CYCLIN-DEPENDENT KINASES” (Origenis Gmbh, priority 2021, published 2025)

Columns and labels:
[1] = target: T1, CDK9/CyclinT1 (Homo sapiens, UniProt P50750); assay: CDK9/T1 ADPGlo kinase assay; assay type: biochemical; conditions: CDK9/CyclinT1 6 nM, ATP 10 microM, PDKtide 40 microM, 120 min RT
T1 construct: purchased ProQinase/Reaction Biology, USA #0371-0345-1
How it was run: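 Human CDK9/CyclinT1 (6 nM final) was preincubated 10 min with compound (12-point 1:3 series from 5 μM), then reacted 120 min at RT with PDKtide (40 μM final) and ATP (10 μM final). ADP was read by ADP-Glo luminescence; IC50 from variable-slope sigmoidal fit.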

[2] = target: T2, CDK2/cyclin A1 (Homo sapiens, UniProt P24941); assay: CDK2/cyclin A1 LanthaScreen (SelectScreen); assay type: binding; conditions: first list; duplicate, averaged
T2 construct: purchased Invitrogen Ltd., Paisley, UK (SelectScreen service)
Method: (§1) The CDK2 inhibitory activity of the compounds of the invention was measured in combination with different […] and assay systems. The SelectScreen™ assessment of the kinase inhibitory activity of CDK2 data point was performed in duplicate and averaged data is reported here. The SelectScreen™ kinase inhibitor assay service was used (Invitrogen Ltd., Paisley, UK) to investigate the ability of the compounds of the invention to inhibit CDK2 in dose dependent manner using ten inhibitor concentrations from 10 micromolar down to […] in half-logarithmic steps. The inhibitor concentration was plotted against the percent inhibition or displacement to determine the IC50 using XLFit 5.5 (IDBS, Guildford) to fit to a sigmoidal dose response curve with a variable slope.

[3] = target: T3, CDK2/cyclin A (Homo sapiens, UniProt P24941); assay: CDK2/cyclin A Z'-LYTE (SelectScreen); assay type: biochemical; conditions: duplicate, averaged
T3 construct: purchased Invitrogen Ltd., Paisley, UK (SelectScreen service)
Method: as §1

[4] = target: T4, CDK2/cyclin E1 (Homo sapiens, UniProt P24941); assay: CDK2/cyclin E1 LanthaScreen (SelectScreen); assay type: binding; conditions: duplicate, averaged
T4 construct: purchased Invitrogen Ltd., Paisley, UK (SelectScreen service)
Method: as §1

[5] = target: T2, CDK2/cyclin A1; assay: CDK2/cyclin A1 LanthaScreen (SelectScreen), second list; assay type: binding; conditions: second list under the same heading; duplicate, averaged
Method: as §1

T1 sequence (P50750 whole entry): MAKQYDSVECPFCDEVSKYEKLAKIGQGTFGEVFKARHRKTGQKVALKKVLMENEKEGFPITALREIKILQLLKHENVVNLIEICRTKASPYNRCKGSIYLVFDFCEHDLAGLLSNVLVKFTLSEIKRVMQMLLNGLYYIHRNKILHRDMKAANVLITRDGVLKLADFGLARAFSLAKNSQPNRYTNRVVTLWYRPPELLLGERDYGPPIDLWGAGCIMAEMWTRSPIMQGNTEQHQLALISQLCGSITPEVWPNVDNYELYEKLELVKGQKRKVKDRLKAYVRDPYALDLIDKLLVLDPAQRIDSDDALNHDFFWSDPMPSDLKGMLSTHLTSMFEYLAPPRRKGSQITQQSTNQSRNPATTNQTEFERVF
T1 sequence (O60563 whole entry partner): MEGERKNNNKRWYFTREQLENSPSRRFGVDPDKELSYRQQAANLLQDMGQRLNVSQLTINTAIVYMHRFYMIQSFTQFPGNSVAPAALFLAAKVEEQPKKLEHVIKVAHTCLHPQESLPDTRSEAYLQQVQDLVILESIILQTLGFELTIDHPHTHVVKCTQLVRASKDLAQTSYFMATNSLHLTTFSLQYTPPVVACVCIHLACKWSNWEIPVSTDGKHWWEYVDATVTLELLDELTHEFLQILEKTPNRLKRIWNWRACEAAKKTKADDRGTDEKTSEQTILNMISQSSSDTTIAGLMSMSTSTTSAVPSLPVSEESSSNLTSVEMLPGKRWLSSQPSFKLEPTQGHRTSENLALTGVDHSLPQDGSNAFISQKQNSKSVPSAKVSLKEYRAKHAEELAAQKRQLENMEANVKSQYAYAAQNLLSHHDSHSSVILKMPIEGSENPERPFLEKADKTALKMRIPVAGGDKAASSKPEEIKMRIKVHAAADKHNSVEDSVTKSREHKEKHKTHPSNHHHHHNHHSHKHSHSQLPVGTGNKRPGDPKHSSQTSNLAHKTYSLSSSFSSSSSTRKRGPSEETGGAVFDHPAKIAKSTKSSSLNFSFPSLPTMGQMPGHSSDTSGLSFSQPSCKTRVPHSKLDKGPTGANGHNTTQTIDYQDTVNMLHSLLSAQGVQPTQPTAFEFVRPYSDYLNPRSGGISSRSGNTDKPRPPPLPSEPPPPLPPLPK

With Fc1cccc(F)c1-c1nc(N[C@H]2CC[C@H](N3CCOCC3)CC2)n2ncc(Cl)c2n1 [Example #89, 8-chloro-2-(2,6-difluorophenyl)-N-((1r,4r)-4-morpholinocyclohexyl)pyrazolo[1,5-a][1,3,5]triazin-4-amine] the IC50 [1] was < 20 nM, the IC50 [2] was < 1000 nM and the IC50 [3] was < 1000 nM. For the same compound, the IC50 [4] was < 200 nM and the IC50 [5] was < 200 nM.

For N[C@H]1CC[C@H](Nc2nc(-c3c(F)cccc3F)nc3c(Cl)cnn23)CC1 [Example #108, (1r,4r)-N1-(8-chloro-2-(2,6-difluorophenyl)pyrazolo[1,5-a][1,3,5]triazin-4-yl)cyclohexane-1,4-diamine], the IC50 [1] was < 20 nM, the IC50 [2] was < 200 nM and the IC50 [3] was < 200 nM. The IC50 [4] was < 200 nM and the IC50 [5] was < 20 nM.

In the case of CN(C)[C@H]1CC[C@H](Nc2nc(-c3c(F)cccc3F)nc3c(Cl)cnn23)CC1 [Example #109, (1r,4r)-N1-(8-chloro-2-(2,6-difluorophenyl)pyrazolo[1,5-a][1,3,5]triazin-4-yl)-N4,N4-dimethylcyclohexane-1,4-diamine], the IC50 [1] is reported as < 20 nM, the IC50 [2] is reported as < 1000 nM and the IC50 [3] is reported as < 1000 nM. For the same compound, the IC50 [4] was < 200 nM and the IC50 [5] was < 200 nM.

For Fc1cccc(F)c1-c1nc(N[C@H]2CC[C@H](N3CCCCC3)CC2)n2ncc(Cl)c2n1 [Example #110, 8-chloro-2-(2,6-difluorophenyl)-N-((1r,4r)-4-(piperidin-1-yl)cyclohexyl)pyrazolo[1,5-a][1,3,5]triazin-4-amine], the IC50 [1] was < 20 nM, the IC50 [2] was < 200 nM and the IC50 [3] was < 1000 nM. The IC50 [4] was < 200 nM and the IC50 [5] was < 200 nM.

For COCCNC1CCC(Nc2nc(-c3c(F)cccc3F)nc3c(Cl)cnn23)CC1 (stereo not drawn) [Example #124, (1r,4r)-N1-(8-chloro-2-(2,6-difluorophenyl)pyrazolo[1,5-a][1,3,5]triazin-4-yl)-N4-(2-methoxyethyl)cyclohexane-1,4-diamine], the IC50 [1] was < 200 nM, the IC50 [2] was < 1000 nM and the IC50 [3] was < 1000 nM. The IC50 [4] was < 200 nM and the IC50 [5] was < 200 nM.

In the case of FCCN[C@H]1CC[C@H](Nc2nc(-c3c(F)cccc3F)nc3c(Cl)cnn23)CC1 [Example #126, (1r,4r)-N1-(8-chloro-2-(2,6-difluorophenyl)pyrazolo[1,5-a][1,3,5]triazin-4-yl)-N4-(2-fluoroethyl)cyclohexane-1,4-diamine], the IC50 [1] is reported as < 20 nM, the IC50 [2] is reported as < 200 nM and the IC50 [3] is reported as < 200 nM. The IC50 [4] was < 200 nM and the IC50 [5] was < 200 nM.

FCCCN[C@H]1CC[C@H](Nc2nc(-c3c(F)cccc3F)nc3c(Cl)cnn23)CC1 [Example #128, (1r,4r)-N1-(8-chloro-2-(2,6-difluorophenyl)pyrazolo[1,5-a][1,3,5]triazin-4-yl)-N4-(3-fluoropropyl)cyclohexane-1,4-diamine] was tested, and the IC50 [1] was < 20 nM, the IC50 [2] was < 200 nM and the IC50 [3] was < 1000 nM. The IC50 [4] was < 200 nM and the IC50 [5] was < 200 nM.

For CN(CCO)C1CCC(Nc2nc(-c3c(F)cccc3F)nc3c(Cl)cnn23)CC1 (stereo not drawn) [Example #133, 2-(((1r,4r)-4-((8-chloro-2-(2,6-difluorophenyl)pyrazolo[1,5-a][1,3,5]triazin-4-yl)amino)cyclohexyl)(methyl)amino)ethan-1-ol], the IC50 [1] was < 20 nM.

For CN(CCCO)C1CCC(Nc2nc(-c3c(F)cccc3F)nc3c(Cl)cnn23)CC1 (stereo not drawn) [Example #134, 3-({4-[8-Chloro-2-(2,6-difluoro-phenyl)-pyrazolo[1,5-a][1,3,5]triazin-4-ylamino]-cyclohexyl}-methyl-amino)-propan-1-ol], the IC50 [1] was < 20 nM.

With CN(CCCF)[C@H]1CC[C@H](Nc2nc(-c3c(F)cccc3F)nc3c(Cl)cnn23)CC1 [Example #135, (1r,4r)-N1-(8-chloro-2-(2,6-difluorophenyl)pyrazolo[1,5-a][1,3,5]triazin-4-yl)-N4-(3-fluoropropyl)-N4-methylcyclohexane-1,4-diamine] the IC50 [1] was < 20 nM.

Fc1cccc(F)c1-c1nc(NC2CCC(N3CCCC3)CC2)n2ncc(Cl)c2n1 (stereo not drawn) [Example #138, 8-chloro-2-(2,6-difluorophenyl)-N-((1r,4r)-4-(pyrrolidin-1-yl)cyclohexyl)pyrazolo[1,5-a][1,3,5]triazin-4-amine] was tested, and the IC50 [1] was < 20 nM.

For C#Cc1cnn2c(N[C@H]3CC[C@H](N4CCOCC4)CC3)nc(-c3c(F)cccc3F)nc12 [Example #139, 2-(2,6-difluorophenyl)-8-ethynyl-N-((1r,4r)-4-morpholinocyclohexyl)pyrazolo[1,5-a][1,3,5]triazin-4-amine], the IC50 [1] was < 200 nM.

Fc1cccc(F)c1-c1nc(N[C@H]2CC[C@H](N3CCOCC3)CC2)n2ncc(I)c2n1 [Example #140, 2-(2,6-difluorophenyl)-8-iodo-N-((1r,4r)-4-morpholinocyclohexyl)pyrazolo[1,5-a][1,3,5]triazin-4-amine] was tested, and the IC50 [1] was < 200 nM.

With CN1CCC(Nc2nc(-c3c(F)cccc3F)nc3c(Cl)cnn23)CC1 [Example #141, 8-chloro-2-(2,6-difluorophenyl)-N-(1-methylpiperidin-4-yl)pyrazolo[1,5-a][1,3,5]triazin-4-amine] the IC50 [1] was < 20 nM.

With CN1CCN([C@H]2CC[C@H](Nc3nc(-c4c(F)cccc4F)nc4c(Cl)cnn34)CC2)CC1 [Example #144, 8-chloro-2-(2,6-difluorophenyl)-N-((1r,4r)-4-(4-methylpiperazin-1-yl)cyclohexyl)pyrazolo[1,5-a][1,3,5]triazin-4-amine] the IC50 [1] was < 20 nM.

For Cc1cc(C)c(CNc2nc(-c3c(F)cccc3F)nc3c(Cl)cnn23)cn1 [Example #145, 8-chloro-2-(2,6-difluorophenyl)-N-((4,6-dimethylpyridin-3-yl)methyl)pyrazolo[1,5-a][1,3,5]triazin-4-amine], the IC50 [1] was < 20 nM.

Fc1cccc(F)c1-c1nc(NCc2cccnc2)n2ncc(Cl)c2n1 [Example #146, 8-chloro-2-(2,6-difluorophenyl)-N-(pyridin-3-ylmethyl)pyrazolo[1,5-a][1,3,5]triazin-4-amine] was tested, and the IC50 [1] was < 20 nM.
